Results from patent US7078400B2, “20-HETE synthase inhibitor” (Taisho Pharmaceutical Co., Ltd., priority 1999, dated 2006).

How the values were obtained:
[1] = test system: 20-HETE synthase originated from rat kidney microsome; assay: Inhibitory effect of 20-HETE synthase originated from rat kidney microsome; format: biochemical; conditions: for Inhibition rate (1 μM): 20-HETE production without compound set to 100%; for IC50: concentration at which production of 20-HETE was inhibited to 50%
Protocol: Experimental Example [Inhibitory effect of 20-HETE synthase originated from rat kidney microsome]
Regarding the compounds listed in Table 1, their inhibitory activity to production of 20-HETE was examined.
The subject compound for this examination was added to a buffer comprising 50 mM of 3-morpholinopropane sulfonic acid (pH7.4), 5 mM of magnesium chloride and 1 mM of ethylenediaminetetraacetic acid (EDTA) disodium salt.
After that, the rat kidney microsome (microsome fraction prepared from the kidney of a spontaneous hypertension rat (male, 6 weeks of age)) as an enzyme, [5,6,8,9,11,12,14,15] tritium-arachidonic acid (supplied by Amasham) as a substrate, and NADPH (supplied by Sigma) as a coenzyme were added and reacted for 1.5 hours at 37° C.
After the reaction, formic acid was added to stop the reaction, and then acetonitrile (final concentration of 50%) was added and left for 1.5 hours at room temperature.
The activity of 20-HETE synthase was measured by using a high performance liquid chromatograph having a detector for radioactive substances (supplied by Gilson), and equipped with a C18 reversed phase column (Biocyl C18, supplied by Bio-rad).

[2] = 1 μM of the subject compound added, rat kidney microsome
[3] = 1 μM of subject compound, rat kidney microsome

Structure (SMILES)	melting point	IC50 ([1]; rat kidney microsome)	Inhibition rate (1 μM) [1, 2]	other results
CCCCc1ccccc1N/C=N/O [Comp. 3]	84.5 to 85.5 °C		98.9	
O/N=C/Nc1ccc(C2CCCCC2)cc1 [Comp. 5]	153 to 154 °C	3.8 nM	99.9	
COc1ccc(C(C)(C)C)cc1N/C=N/O [Comp. 6]	119.5 to 120.5 °C		99.9	
Cc1ccc(N/C=N/O)c(Cl)c1 [Comp. 11]	151 to 152.5 °C	297 nM	92.7	
O/N=C/Nc1ccc(Cl)cc1 [Comp. 15]	155.5 to 156 °C	288 nM	92.9	
COc1ccc(N/C=N/O)c(C)c1 [Comp. 19]	144 to 145 °C	338 nM	88.0	
CCOc1ccc(N/C=N/O)cc1 [Comp. 20]	149 to 150 °C	228 nM	97.5	
CCc1cccc(N/C=N/O)c1 [Comp. 21]	115.5 to 116.5 °C		81.1	
COc1ccc(Cl)cc1N/C=N/O [Comp. 26]	155 to 156.5 °C	204 nM	86.0	
CC(C)c1cccc(N/C=N/O)c1 [Comp. 29]	93 to 94.5 °C		93.6	
CCCc1ccc(N/C=N/O)cc1 [Comp. 31]	131 to 132 °C	6.6 nM	97.8	
O/N=C/Nc1c(Br)cccc1Br [Comp. 33]	171 °C		91.9	
O/N=C/Nc1ccc(Br)cc1 [Comp. 36]	163 to 164 °C	136 nM	98.3	
Cc1ccc(F)c(N/C=N/O)c1 [Comp. 43]	123 to 124 °C	168 nM		
CCCOC(=O)c1ccc(N/C=N/O)cc1 [Comp. 44]	145 to 146 °C	8.1 nM		
Cc1cc(C)c(N/C=N/O)c(Br)c1 [Comp. 45]	163.5 to 164.5 °C		53.5	
O/N=C/Nc1cccc(C(F)(F)F)c1 [Comp. 46]	100.5 to 102 °C	355 nM	48.5	
Cc1cc(I)ccc1N/C=N/O [Comp. 47]	166 to 166.5 °C	6.5 nM	94.8	
CCOC(=O)c1cccc(N/C=N/O)c1 [Comp. 127]	137.5 to 138.5 °C			
COC(=O)c1ccc(COc2ccc(N/C=N/O)cc2)cc1 [Comp. 396]				Inhibition rate (1 μM) [1, 3]: 102.7
O/N=C/Nc1ccc(OCc2ccc(-c3ccccc3)cc2)cc1 [Comp. 397]				Inhibition rate (1 μM) [1, 3]: 99.3
CCN(CC)CCOCCOc1ccc(N/C=N/O)cc1 [Comp. 398]				Inhibition rate (1 μM) ([1]; 1 μM of the subject compound): 95.2; IC50 [1]: 2.4 nM

Structure (SMILES)	melting point	IC50 ([1]; rat kidney microsome)	Inhibition rate (1 μM) [1, 2]	other results
CCN(CCOc1ccc(N/C=N/O)cc1)c1cccc(C)c1 [Comp. 405]				Inhibition rate (1 μM) ([1]; 1 μM of the subject compound): 116.0
Cn1c(=O)c2c(ncn2CCOc2ccc(N/C=N/O)cc2)n(C)c1=O [Comp. 406]				Inhibition rate (1 μM) ([1]; 1 μM of the subject compound): 73.7
O/N=C/Nc1ccc(OCCOc2ccccc2)cc1 [Comp. 418]				Inhibition rate (1 μM) ([1]; 1 μM of the subject compound): 120.4
O/N=C/Nc1ccc(OCCSc2ccccc2)cc1 [Comp. 419]				Inhibition rate (1 μM) ([1]; 1 μM of the subject compound): 116.1
OCCCCCOc1ccc(N/C=N/O)cc1 [Comp. 427]				IC50 [1]: 2.6 nM
O/N=C/Nc1ccc(OCCCN2CCCC2)cc1 [Comp. 429]				IC50 [1]: 79.1 nM
O/N=C/Nc1ccc(SCc2ccc(Cl)cc2)cc1 [Comp. 437]				Inhibition rate (1 μM) ([1]; 1 μM of the subject compound): 96.1
O/N=C/Nc1ccc(SC2CCCCC2)cc1 [Comp. 438]				Inhibition rate (1 μM) ([1]; 1 μM of the subject compound): 87.9
CCOC(=O)CSc1ccc(N/C=N/O)cc1 [Comp. 440]				Inhibition rate (1 μM) ([1]; 1 μM of the subject compound): 102.8
CCCCSc1ccc(N/C=N/O)cc1 [Comp. 442]				Inhibition rate (1 μM) ([1]; 1 μM of the subject compound): 95.7
CC(C)CCSc1ccc(N/C=N/O)cc1 [Comp. 443]				Inhibition rate (1 μM) ([1]; 1 μM of the subject compound): 103.0
COC(=O)CSc1ccc(N/C=N/O)cc1 [Comp. 446]				Inhibition rate (1 μM) ([1]; 1 μM of the subject compound): 95.9
O/N=C/Nc1ccc(SC2CCCC2)cc1 [Comp. 447]				Inhibition rate (1 μM) ([1]; 1 μM of the subject compound): 95.9
CCCCCSc1ccc(N/C=N/O)cc1 [Comp. 450]				Inhibition rate (1 μM) ([1]; 1 μM of the subject compound): 105.9
CCCCCCSc1ccc(N/C=N/O)cc1 [Comp. 451]				Inhibition rate (1 μM) ([1]; 1 μM of the subject compound): 97.6
CCCCCCCSc1ccc(N/C=N/O)cc1 [Comp. 452]				Inhibition rate (1 μM) ([1]; 1 μM of the subject compound): 112.3
CCCCCCCCCSc1ccc(N/C=N/O)cc1 [Comp. 453]				Inhibition rate (1 μM) ([1]; 1 μM of the subject compound): 95.3
CCN(CC)CCSc1ccc(N/C=N/O)cc1 [Comp. 454]				Inhibition rate (1 μM) ([1]; 1 μM of the subject compound): 105.8
COC(=O)CCSc1ccc(N/C=N/O)cc1 [Comp. 455]				Inhibition rate (1 μM) ([1]; 1 μM of the subject compound): 105.6
CCOC(=O)CCSc1ccc(N/C=N/O)cc1 [Comp. 457]				Inhibition rate (1 μM) ([1]; 1 μM of the subject compound): 112.6
O/N=C/Nc1ccc(SCCc2ccccc2)cc1 [Comp. 458]				Inhibition rate (1 μM) ([1]; 1 μM of the subject compound): 116.0

Continued, in another order:

melting point	IC50 ([1]; rat kidney microsome)	Structure (SMILES)	Inhibition rate (1 μM) [1, 2]	other results
113.5 to 114.5 °C		CC(C)(C)c1ccc(N/C=N/O)cc1 [Comp. 2, N-(4-tert-butylphenyl)-N′-hydroxy-formamidine]		
101 to 102.5 °C		CCC(C)c1ccc(N/C=N/O)cc1 (stereo not drawn) [Comp. 4]		
122.5 to 124 °C	12.1 nM	CCCCCc1ccc(N/C=N/O)cc1 [Comp. 7]	110.5	
141 to 142 °C		CC(C)(C)c1ccccc1N/C=N/O.Cl [Comp. 8]	99.9	
108 to 110 °C		CCCCCCc1ccc(N/C=N/O)cc1 [Comp. 9]		
143.5 to 144.5 °C		Cc1ccc(N/C=N/O)cc1 [Comp. 10]		
139.5 to 140.5 °C	1420 nM	O/N=C/Nc1ccc(F)cc1 [Comp. 12]	77.1	
116 to 118 °C	118 nM	Cc1ccc(N/C=N/O)cc1C [Comp. 13]	95.9	
151 to 153 °C	163 nM	Cc1ccc(Cl)c(N/C=N/O)c1 [Comp. 14]	91.7	
141 to 142 °C		CCc1ccc(N/C=N/O)cc1 [Comp. 16]		
136.5 to 139 °C		COc1ccc(C)cc1N/C=N/O [Comp. 17]	85.3	
139 to 140 °C	45.2 nM	COc1ccc(N/C=N/O)cc1 [Comp. 18]	94.6	
110 to 111.5 °C	476 nM	O/N=C/Nc1cccc(Cl)c1 [Comp. 23]	82.8	
119 to 120.5 °C	520 nM	O/N=C/Nc1ccc(Cl)c(Cl)c1 [Comp. 24]	89.2	
142.5 to 144.5 °C		O/N=C/Nc1ccc(Cl)cc1F [Comp. 25]	87.0	
140.5 to 142 °C	1.7 nM	O/N=C/Nc1ccc(C(F)(F)F)cc1 [Comp. 27]	103.3	
119 to 120.5 °C	4.7 nM	CCCCCCCc1ccc(N/C=N/O)cc1 [Comp. 28]	92.5	
143 to 143.5 °C		CC(C)c1ccc(N/C=N/O)cc1 [Comp. 30]		

melting point	IC50 ([1]; rat kidney microsome)	Structure (SMILES)	Inhibition rate (1 μM) [1, 2]	other results
114 to 115 °C		CC(C)c1ccccc1N/C=N/O [Comp. 32]	87.2	
163 to 163.5 °C	79.7 nM	O/N=C/Nc1ccc(Br)cc1Br [Comp. 34]	90.6	
167 to 167.5 °C		COC(=O)c1ccc(N/C=N/O)cc1 [Comp. 37]		
151 to 152.5 °C	79.8 nM	Cc1cc(Cl)ccc1N/C=N/O [Comp. 38]	89.8	
160 to 161 °C		O/N=C/Nc1ccc(Cl)cc1Cl [Comp. 40]	98.2	
161 to 161.5 °C	49 nM	Cc1cc(Br)ccc1N/C=N/O [Comp. 41]	96.6	
144 to 145 °C		CCC(C)c1ccccc1N/C=N/O (stereo not drawn) [Comp. 42]	99.9	
155 to 156 °C		CCCc1cc(Br)c(N/C=N/O)c(Br)c1 [Comp. 48]		
145 to 146 °C		COc1cccc(C)c1N/C=N/O [Comp. 52]		
159 to 160 °C		CCc1cc(Br)cc(CC)c1N/C=N/O [Comp. 53]		
143 to 146 °C		COc1cc(N/C=N/O)cc(OC)c1OC [Comp. 103]		
183 to 183.5 °C		COC(=O)c1cc(N/C=N/O)cc(C(=O)OC)c1 [Comp. 129]		
116.5 to 117.5 °C		CCCCc1ccc(C)c(N/C=N/O)c1 [Comp. 133]		
165 to 165.5 °C		O/N=C/Nc1ccc2c(c1)OCO2 [Comp. 230]		
118 to 119.5 °C		O/N=C/Nc1ccc(Cc2ccccc2)cc1 [Comp. 233]		
130.5 to 131.5 °C		NS(=O)(=O)c1ccccc1N/C=N/O [Comp. 236, N-(2-aminosulfonylphenyl)-N′-hydroxyformamidine]		
177.5 to 178 °C		O/N=C/Nc1ccc(N2CCOCC2)c(Cl)c1 [Comp. 302]		
132 to 133 °C		CCCOc1ccc(N/C=N/O)cc1 [Comp. 317]		
